Key:
anemia patients = assay: Iron status and safety diagnostic parameters in anemia patients under rhEPO/iron therapy; type: in vivo, human
Procedure: When conducting the combination therapy using the combination preparation of the invention to treat anemia, the weekly maximum dosage can be concluded in a quite simple fashion by determining the diagnostic parameters transferrin receptor (TfR), ferritin and the ratio of TfR to ferritin.
Advantageously, the TfR concentration is between 1500-2500 μg/l. The concentration ratio of TfR (in μg/l) to ferritin (in μg/l) is particularly in the range of 15-35, preferably at values above 20.
In order to safely exclude undesirable side effects, the acute phase parameter CRP (2-10 mg/l) [CRP=C-reactive protein) is measured. In addition, the liver parameter GPT (glutamate pyruvate transaminase) may be determined, which should be <50 U/l at 37° C. (<30 U/l at 25° C.). Furthermore, the hematological control parameters such as hematocrit (fraction of red blood cells in total volume) or the increase in hypochromic erythrocytes may optionally be utilized, wherein the reticulocytes may increase to a value of up to 15/1000-30/1000. The typical hemoglobin concentration is about 12-18 g/dl.
The determination of the iron status is effected by analyzing samples of body fluids (blood, serum, urine, etc.) from the patients in question. For the determination of the iron status, particularly the concentrations of iron, transferrin, ferritin, transferrin receptor, the transferrin saturation, and the transferrin/ferritin saturation are determined. With hemodialysis patients, the iron, transferrin, ferritin and transferrin saturation parameters are preferably determined according to per se common analytical methods. In particular, the determination of the transferrin/ferritin saturation value is relevant. In the case of anemia patients whose anemia has not been caused by hemodialysis, the ferritin concentration and the concentration of transferrin receptor are determined above all. In particular, the determination of the ratio of transferrin receptor to ferritin (transferrin receptor/ferritin saturation value) is relevant.
In addition, the serum ferritin level is determined. Ferritin is an iron-storing glycoprotein of which tissue-typical isoferritins are existing and which can be determined in the serum by immunological means, e.g., by a radioimmunoassay (RIA) or by turbidimetric methods as well. The ferritin value is a measure for iron storage in the tissue. In most of the laboratories, the normal range is between 30 and 300 ng/ml, and the geometrical mean value is 88 in males and 49 in females. The serum ferritin values are in close relationship to the total iron reserve of the body. Therefore, decreased serum ferritin levels are found only in case of iron deficiency. Increased levels are found in case of iron overloading. Likewise, increased serum ferritin levels are found in case of liver lesions or in association with some types of neoplasia, where ferritins may be bound to acute phase proteins. Similarly, the serum transferrin receptor may be determined using an enzyme-enhanced immune absorption test (enzyme-linked immunosorbent assay=ELISA), wherein a monoclonal antibody against the soluble receptor is used. The reference range is between 0.5-3 mg/l. The level is increased in case of slight deficiency in the iron depots. The concentrations of specific erythrocyte ferritins may be determined in order to characterize the iron depots, particularly if the serum ferritin cannot be utilized in case of tissue lesions or due to acute phase reactions.

hemodialysis patients = assay: Iron status and safety diagnostic parameters in hemodialysis patients under rhEPO/iron therapy; type: in vivo, human
Procedure: When conducting the combination therapy using the combination preparation according to the invention, the maximum weekly dosage can be concluded in a quite simple fashion by determining the diagnostic parameters for the iron status, particularly the iron, transferrin, transferrin saturation and ferritin parameters.
Preferably, the ferritin concentration is at least 125 μg/l, particularly at least 150 μg/l, and up to 270 μg/l at maximum, especially up to 250 μg/l at maximum. Advantageously, the iron concentration is between 10-20 μmol/l (corresponding to about 56-112 μg/dl) and the transferrin concentration between […] (corresponding to about 240-480 mg/dl) The transferrin saturation is defined as the ratio of serum/plasma iron concentration to serum/plasma transferrin concentration (multiplied by a correction factor of 1.41). It is a non-dimensional figure not depending on the patient's hydration condition. The transferrin saturation is calculated according to the formula: […]
In order to safely exclude undesirable side effects, the acute phase parameter CRP (5 mg/l±100%) [CRP=C reactive protein) is measured, with CRP currently being regarded as the best protein marker of inflammatory reactions. In addition, the liver parameters GPT (glutamate pyruvate transaminase), GOT (glutamate oxalic acetate transaminase) and γ-GT (γ-glutamyltransferase) may be determined, which should fall within the following ranges: (determination at 37° C.): GPT: <50 U/l; GOT: <50 U/l; γ-GT: <40 U/l, with the GPT parameter currently ranking first in liver diagnostics.
The determination of the iron status is effected by analyzing samples of body fluids (blood, serum, urine, etc.) from the patients in question. For the determination of the iron status, particularly the concentrations of iron, transferrin, ferritin, transferrin receptor, the transferrin saturation, and the transferrin/ferritin saturation are determined. With hemodialysis patients, the iron, transferrin, ferritin and transferrin saturation parameters are preferably determined according to per se common analytical methods. […]

[1] = Patient E (anemia), 5,000 U rhEPO three times a week over 3 weeks
[2] = Patient F (anemia), iron infusions omitted, within 3 weeks
[3] = Patient B (hemodialysis), 5,000 U rhEPO three times a week over 3 weeks

recombinant human erythropoietin [rhEPO]
ferritin value decreased to (anemia patients; [1]): < 500 µg/L | transferrin receptor value increased to (anemia patients; [1]): above 1500 μg/l | transferrin saturation decreased to (anemia patients; [1]): < 25% | ferritin values lowered to (anemia patients; [2]): < 500 µg/L | transferrin receptor values increased to (anemia patients; [2]): above 1500 μg/l | ferritin value decreased to (hemodialysis patients; [3]): < 500 µg/L | transferrin saturation decreased to (hemodialysis patients; [3]): < 25% | ferritin values lowered to (hemodialysis patients; Patient C (hemodialysis), iron infusions omitted, within 3 weeks): 500 µg/L
